Earlier results as cited in US9339504B2, “Orally disintegrating tablet compositions of lamotrigine” (ADARE Pharmaceuticals, Inc., priority 2007, dated 2016).
Converted amounts (≈) assume the structure as drawn. Read-outs that look alike come from different tables or passages of the source.

Nc1nnc(-c2cccc(Cl)c2Cl)c(N)n1 [Lamotrigine, 3,5-diamino-6-(2,3,-dichlorophenyl)-1,2,4-triazine]
solubility in 0.01N HCl (0.01N HCl, 25° C.): ~3000 µg/mL (≈ 11.7 mM) | solubility in 0.1N HCl (0.1N HCl, 25° C.): ~4000 µg/mL (≈ 15.6 mM) | solubility in water (25° C.): ~170 µg/mL (≈ 0.664 mM) | solubility in water (37° C.): ~570 µg/mL (≈ 2.23 mM)
